Read-outs that look alike come from different tables or passages of the source. Ends that are not written are not given here.
Key:
[1] = format: binding; set-up: unit not given here; conditions: CNTs (1–8 µg mL−1); peptide probe 2 × 10−6 M; PBS (0.01 M, pH 7.4), 2 min, excitation 520 nm; double reciprocal linear fitting
[2] = test system: RBDs from the S-proteins of the five VOCs; assay: Differential sensing of RBDs with S1-S20 (fluorescence, PCA, loading plots); format: binding, SARS-CoV-2; conditions: PCA and loading plots
[3] = format: binding; set-up: unit not given here; conditions: 2D MnO2 (1–12 µg mL−1); peptide probe 2 × 10−6 M; PBS (0.01 M, pH 7.4), 2 min, excitation 520 nm; double reciprocal linear fitting
[4] = format: binding; set-up: unit not given here; conditions: AuNPs (1–20 µg mL−1); peptide probe 2 × 10−6 M; PBS (0.01 M, pH 7.4), 2 min, excitation 520 nm; double reciprocal linear fitting
[5] = test system: RBDs; format: binding, SARS-CoV-2; conditions: peptide-GO complexes; RBDs 0 to 12 μg mL-1; PBS (0.01 M, pH 7.40); excitation 520 nm
[6] = format: binding; set-up: unit not given here; conditions: GO (1–15 µg mL−1); peptide probe 2 × 10−6 M; PBS (0.01 M, pH 7.4), 2 min, excitation 520 nm; double reciprocal linear fitting
[7] = Circular dichroism (CD); format: physicochemical; conditions: bandwidth of 1 nm; buffer spectrum subtracted as blank

Substance | binding constant (Ka) [1] | contribution of peptide probes for VOC classification (order, loading plots) [2] | binding constant (Ka) [3] | binding constant (Ka) [4] | sensitivity of the peptide probes for the RBDs (order, from detection limits) [5] | binding constant (Ka) [6] | secondary structure (CD spectra) [7]
TI7: fluorescently tagged (5-TAMRA) peptide probe, presumably of GI7 (GKGDFRI; also: 5-TAMRA label, site not given here; UniProt Q9BYF1 352-358, looked up, fragment) | 0.1462 | TI26 > TQ26 > TQ19 > TL7 > TI7 | 0.1024 | 0.0153 | TI26 > TQ26 > TQ19 > TL7 > TI7 | 0.0273 | –
TQ19: fluorescently tagged (5-TAMRA) peptide probe, presumably of QQ19 (QAKTFLDKFNHEAEDLFYQ; also: 5-TAMRA label, site not given here; UniProt Q9BYF1 24-42, looked up, fragment) | – | TI26 > TQ26 > TQ19 > TL7 > TI7 | – | – | TI26 > TQ26 > TQ19 > TL7 > TI7 | – | –
GI7: heptamer (residues 352–358) from the β3 and β4-sheet of hACE2 (GKGDFRI; UniProt Q9BYF1 352-358, looked up, fragment) | – | – | – | – | – | – | no typical signature of secondary structures
TL7: fluorescently tagged (5-TAMRA) peptide probe, presumably of LL7 (LAQMYPL; also: 5-TAMRA label, site not given here; UniProt Q9BYF1 79-85, looked up, fragment) | 0.0776 | TI26 > TQ26 > TQ19 > TL7 > TI7 | 0.0096 | 0.0249 | TI26 > TQ26 > TQ19 > TL7 > TI7 | 0.0319 | –
QQ19: continuous 19-mer (amino-acid residues 24–42) truncated from the α1-helix of hACE2 (QAKTFLDKFNHEAEDLFYQ; UniProt Q9BYF1 24-42, looked up, fragment) | – | – | – | – | – | – | two minima at 202 and 222 nm, characteristic of α-helices
LL7: heptamer (residues 79–85) from α2-helix of hACE2 (LAQMYPL; UniProt Q9BYF1 79-85, looked up, fragment) | – | – | – | – | – | – | no typical signature of secondary structures

— paper PMC11295173 (Journal of the American Chemical Society, 2024)
